Results published in patent US7018642B2 (The Procter & Gamble Company, priority 2001, dated 2006).
Values joined by “and” are separate entries in the source; they are usually repeats but may differ in a detail not shown here. Equal entries are not always repeated.

Columns and labels:
[1] = system: S. epidermidis; assay: 3-piece growth-chamber array (3P-GCA) biofilm growth test on bathroom tile; assay type: cell-based, Staphylococcus epidermidis; conditions: 72 hours; for optical density of extracted crystal violet (biofilm growth): S. epidermidis on standard white matte bathroom tile, two medium exchanges, replicate wells A, B, C, smaller = prevention, inoculated control 1.870-2.387; for biofilm prevention activity in 3P-GCA method (in words): S. epidermidis on white matte bathroom tile
Protocol: Wells in the block bottom are filled with 0.5–1 mL of the media described in Reference Example 1, and inoculated with 5–10 μL of overnight cultures of the bacterial strains described in Reference Example 1. The block bottom and top that contain a standard-size, white bathroom tile are then aligned and clamped together, and the assembly placed on a tissue culture rotator (VWR Scientific) set at a rotation speed of 1–3 rpm, or in a shaking incubator, at the appropriate temperature, for 24 hours. Optionally, the 1 mL liquid medium in each well is then replaced with fresh medium, and incubation continued for an additional 24 hours; this sequence of medium replacement and continued growth is done from 1–3 times, to generate biofilms of the desired thickness. After growth, the block bottom is removed, the liquid is removed and replaced with 200 μL of a 1% CV solution (in ˜10% ethanol). The block is then reassembled, re-positioned on the tissue culture rotator and incubated with the settings described above for 15–75 minutes to stain the biofilms. The block pieces are disassembled, and the top block that contains the tile surface is rinsed under a gentle stream of deionized water until all unbound dye is visibly removed. Optionally, any excessive dye adsorbed to the sides of the wells of the block bottom is removed using a test tube brush and a commonly available detergent formulation; this helps to reduce any background due to non-specific staining that can sometimes occur. As a faster alternative, the stained block bottom is simply interchanged with a new or pre-cleaned block bottom. Bound dye on the tile surface is then extracted by pipetting 0.5–1.0 mL of a solution of 1% sodium deoxycholate in 95% ethanol (and optionally 4–6 glass beads 1–3 mm in diameter to assist dye removal) into each well, reassembling the block top and bottom, and either repositioning on the tissue culture rotator followed by incubation using the settings described above for 0.5–2 hours, or alternatively, vortexing vigorously for 1–5 minutes. Subsequently, either undiluted or diluted (in ethanol) samples of extracted CV pipetted from the disassembled blocks are transferred to flat bottom, polystyrene microtiter plates and absorbances are measured in a microplate reader, and compared to controls, as described in Reference Example 1. […] Use of the 3P-GCA is the same as for the 2P-GCA described in Reference Example 5, except that when liquid growth media are being replaced in the wells of the block bottom, only one of the lid assemblies is removed. This arrangement has the advantage that if sensitive biofilms are being investigated, they are not disturbed at all during the entire method. If the biofilms being investigated are not sensitive to disturbance, then an additional advantage of the 3P-GCA is that it can be used to grow biofilms on both surfaces 30 of each lid assembly 90, especially if the 3P-GCA is mounted on a tissue culture rotator for biofilm growth, such that liquid growth media contacts both surfaces 30. […] Polypropylene block components are used. Data are reported as optical density measurements for 3 replicates of inoculated wells per compound tested, with 3 inoculated and three uninoculated control well replicates, corresponding to columns 1 (compound 32), 2 (compound 168), 3 (compound 226), 4 (inoculated control), and 5 (uninoculated control). Smaller numbers indicate prevention of biofilm growth.

[2] = system: S. epidermidis strain ATCC 35984; assay: Improved biofilm dispersion screen (already-formed biofilms, crystal violet); assay type: cell-based; conditions: Staphylococcus epidermidis, ATCC35984, no NaOH, positive = dispersion, negative = enhancement of pre-existing biofilm, quadruplicate, read-out: average percentage reduction of biofilm relative to the two control values (dispersion)
In short: (§1)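 Biofilms pre-grown 24 h without compound, then given fresh medium with compound at 390 μM for another 22–26 h. NaOH wash in PBS (0 mM S. epidermidis, 20 mM P. fluorescens, 30 mM P. aeruginosa; 30 min, room temperature), then crystal violet staining. Percent biofilm reduction calculated against t0 and DMSO t24 controls, quadruplicates; negative values mean enhancement.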

[3] = system: P. aeruginosa strain PAO1; assay: as above; assay type: cell-based; conditions: Pseudomonas aeruginosa, 30 mM NaOH step, positive = dispersion, negative = enhancement of pre-existing biofilm, quadruplicate, read-out: average percentage reduction of biofilm relative to the two control values (dispersion)
In short: as §1

[4] = system: P. fluorescens strain ATCC 13525; assay: as above; assay type: cell-based; conditions: Pseudomonas fluorescens, ATCC13525, 20 mM NaOH step, positive = dispersion, negative = enhancement of pre-existing biofilm, quadruplicate, read-out: average percentage reduction of biofilm relative to the two control values (dispersion)
In short: as §1

Compound	optical density of extracted crystal violet (biofilm growth) [1]	biofilm prevention activity in 3P-GCA method (in words) [1]	inhibition at 390 µM [2] [%]	inhibition at 390 µM [3] [%]	inhibition at 390 µM [4] [%]
CCCCCCCCCCNC(=O)[C@@H]1CCCN1 [Compound 32, L-proline n-decyl amide]	0.175 and 0.244 and 0.207	strong biofilm prevention activity	72	-107	0
CCCCCCCCCCCCNC(=O)[C@@H]1CCCN1 [Compound 168]	1.981 and 1.581 and 1.517	much more modest effect	78	17	-3
O=C(NCCCCCCCCCCCCNC(=O)[C@H]1CCCN1)[C@H]1CCCN1 [Compound 226, D-proline 1,12-diaminododecane bisamide]	0.202 and 0.269 and 0.147	strong biofilm prevention activity	26	7	32
